Measured values taken from patent US11964950B2, “Arylamide derivative having antitumor activity” (priority 2020, dated 2024).

Columns and labels:
[1] = system: NCI-H2122 human lung cancer cells; test: Cell proliferation-inhibiting activity, NCI-H2122 (CellTiter-Glo, ATP in viable cells); format: cell-based; conditions: NCI-H2122, 96 h, Table 3, 4 days culture
Description: (§1) The cell proliferation-inhibiting activity of the compounds listed in Table 3 below was evaluated by measuring the amount of ATP in viable cells as described below.
(§2) The test compound was serially diluted with DMSO and then diluted 25-fold with Ca^2+, Mg^2+-free phosphate-buffered saline, and was then dispensed into a 96-well plate at 5 μL per well. A cell suspension containing the below indicated concentration of A549, Calu-6 or NCI-H2122 human lung cancer cells (all obtained from ATCC) was prepared using the below indicated medium with the addition of 10% fetal bovine serum (Sigma). The cell suspension was dispensed into the test compound-added plate at 95 μL per well and cultured in a 5% carbon dioxide gas incubator at 37° C. After 4 days, 80 μL of CellTiter-Glo (registered trademark) (Promega Corp.) was added to each well and the bioluminescence was measured with a fluorescent plate reader.

[2] = system: Calu-6 human lung cancer cells; test: Cell proliferation-inhibiting activity, Calu-6 (CellTiter-Glo, ATP in viable cells); format: cell-based; conditions: Calu-6, 96 h, Table 3, 4 days culture
Description: as §1, §2
Calu-6: Eagle's Minimum Essential Medium (Sigma); 4000 cells/95 μL

[3] = system: A549 human lung cancer cells; test: Cell proliferation-inhibiting activity, A549 (CellTiter-Glo, ATP in viable cells); format: cell-based; conditions: A549, 96 h, Table 3, 4 days culture
Description: as §1, §2
A549: Dulbecco's Modified Eagle's Medium (Sigma); 2000 cells/95 μL

[4] = Human liver microsome stability; format: in vitro ADME; conditions: NADPH, 37° C.; for microsomal CLint at 0.99 µM: human liver microsomes (XENOTECH), pH 7.4, hepatic intrinsic clearance; for CLint: hepatic intrinsic clearance, human liver microsomes
Description: There were dispensed 400 μL of 1 mg/mL human liver microsomes (XENOTECH)/0.1 M potassium phosphate buffer (pH 7.4) into each well of a 96-well plate. A DMSO solution (4 μL) of 200 μM test compound was then added, and incubation was conducted until reaching 37° C. To this reaction mixture (200 μL) there was added a solution (200 μL) containing 2 mM NADPH (ORIENTAL YEAST)/0.1 M potassium phosphate buffer (pH 7.4) that had been incubated at 37° C. At 0 min, 5 min, 15 min or 30 min after addition, the reaction mixture (50 μL) was added to acetonitrile (100 μL) to stop the metabolic reaction. After the metabolic reaction was stopped, a 1 μM warfarin aqueous solution (50 μL) was added to each reaction mixture as an internal standard. The reaction mixture was filtered and analyzed by LC/MS/MS (LC: NEXERA by Shimadzu; MS: 4000Q trap by ABSciex; column: Ascentis Express C18 HPLC column (5 cm×2.1 mm, 2.7 μm); ionization method: electrospray ionization). The percent remaining relative to the amount of test compound at 0 min was calculated from the obtained peak area ratio of the test compound to internal standard. The elimination rate constant (ke) was calculated from the incubation time and percent remaining using the primary elimination rate equation, and the hepatic intrinsic clearance (CLint) was calculated using the formula shown below. CLint (μL/min/mg)=ke (min^−1)/human liver microsome concentration (mg protein/μL)

Structure (SMILES) | IC50 [1] [nM] | IC50 [2] [nM] | IC50 [3] [nM] | microsomal CLint at 0.99 µM [4] [µL/min/mg] | CLint [4] [µL/min/mg]
CNS(=O)(=O)Nc1cccc(Cc2cc(C(=O)NC3CC3)c(Nc3ccc(C4CC4)cc3F)c(F)c2F)c1F [D-15, N-Cyclopropyl-2-(4-cyclopropyl-2-fluoroanilino)-3,4-difluoro-5-[[2-fluoro-3-(methylsulfamoylamino)phenyl]methyl]benzamide] | 11 | 118 | – | – | –
CNS(=O)(=O)Nc1nccc(Cc2cc(C(N)=O)c(Nc3ccc4sccc4c3F)c(F)c2F)c1F [H-3, 3,4-difluoro-2-[(4-fluoro-1-benzothiophen-5-yl)amino]-5-[[3-fluoro-2-(methylsulfamoylamino)pyridin-4-yl]methyl]benzamide] | 1 | – | 5 | – | –
CNS(=O)(=O)Nc1nccc(Cc2cc(C(N)=O)c(Nc3ccc(C4CC4)cc3F)n(C)c2=O)c1F [J-3, 2-(4-Cyclopropyl-2-fluoroanilino)-5-[[3-fluoro-2-(methylsulfamoylamino)pyridin-4-yl]methyl]-1-methyl-6-oxopyridine-3-carboxamide] | 123 | 972 | 854 | – | –
CS(=O)(=O)Nc1cccc(Cc2cc(C(N)=O)c(Nc3ccc(I)cc3F)c(F)c2F)c1F [E-13, 3,4-difluoro-2-(2-fluoro-4-iodoanilino)-5-[[2-fluoro-3-(methanesulfonamide)phenyl]methyl]benzamide] | – | – | – | 25 | –
COCC1(NS(=O)(=O)Nc2nccc(Cc3cc(C(N)=O)c(Nc4ccc(I)cc4F)c(F)c3F)c2F)CC1 [A-16, 3,4-Difluoro-2-(2-fluoro-4-iodoanilino)-5-[[3-fluoro-2-[[1-(methoxymethyl)cyclopropyl]sulfamoylamino]pyridin-4-yl]methyl]benzamide] | – | – | – | 47 | –
CNS(=O)(=O)Nc1nccc(Cc2cc(C(=O)NC3CC3)c(Nc3ccc(C4CC4)cc3F)c(F)c2F)c1F [G-1, N-Cyclopropyl-2-(4-cyclopropyl-2-fluoroanilino)-3,4-difluoro-5-[[3-fluoro-2-(methylsulfamoylamino)pyridin-4-yl]methyl]benzamide] | 6 | 65 | 21 | – | –
CC1(NS(=O)(=O)Nc2nccc(Cc3cc(C(N)=O)c(Nc4ccc(I)cc4F)c(F)c3F)c2F)CC1 [A-23, 3,4-Difluoro-2-(2-fluoro-4-iodoanilino)-5-[[3-fluoro-2-[(1-methylcyclopropyl)sulfamoylamino]pyridin-4-yl]methyl]benzamide] | – | – | – | – | <1
CCS(=O)(=O)Nc1nccc(Cn2cc(C(N)=O)c(Nc3ccc(I)cc3F)c(C)c2=O)c1F [P-2, 1-[[2-(ethylsulfonylamino)-3-fluoropyridin-4-yl]methyl]-4-(2-fluoro-4-iodoanilino)-5-methyl-6-oxopyridine-3-carboxamide] | 109 | 337 | – | – | –
COCC1(S(=O)(=O)Nc2cccc(Cc3cc(C(=O)NOC)c(Nc4ccc(I)cc4F)c(F)c3F)c2F)CC1 [E-3, 3,4-Difluoro-2-(2-fluoro-4-iodoanilino)-5-[[2-fluoro-3-[[1-(methoxymethyl)cyclopropyl]sulfonylamino]phenyl]methyl]-N-methoxybenzamide] | – | – | – | 149 | –
CCS(=O)(=O)Nc1cccc(Cc2cc(C(=O)NOC(C)(C)C)c(Nc3ccc(I)cc3F)n(C)c2=O)c1F [K-9, 5-[[3-(Ethylsulfonylamino)-2-fluorophenyl]methyl]-2-(2-fluoro-4-iodoanilino)-1-methyl-N-[(2-methylpropan-2-yl)oxy]-6-oxopyridine-3-carboxamide] | – | – | – | 185 | –
CNS(=O)(=O)Nc1nccc(Cc2cc(C(=O)NC3CC3)c(Nc3ccc(I)cc3F)c(F)c2F)c1F [A-2, N-cyclopropyl-3,4-difluoro-2-(2-fluoro-4-iodoanilino)-5-[[3-fluoro-2-(methylsulfamoylamino)pyridin-4-yl]methyl]benzamide] | 0.1 | 2 | 1 | – | –
CS(=O)(=O)Nc1cccc(Cc2cc(C(=O)NC3CC3)c(Nc3ccc(I)cc3F)c(F)c2F)c1F [E-25, N-Cyclopropyl-3,4-difluoro-2-(2-fluoro-4-iodoanilino)-5-[[2-fluoro-3-(methanesulfonamide)phenyl]methyl]benzamide] | – | – | – | 8 | –
CNS(=O)(=O)Nc1nccc(Cc2c(C)c3ccc(Oc4ncccn4)cc3oc2=O)c1F [Ref-5, 3-[[3-Fluoro-2-(methylsulfamoylamino)pyridin-4-yl]methyl]-4-methyl-7-pyrimidin-2-yloxychromen-2-one, reference compound] | – | – | – | – | <1
NC(=O)c1cc(Cc2ccnc(NS(=O)(=O)NC3CC3)c2F)c(F)cc1Nc1ccc(I)cc1F [1-3, 5-[[2-(Cyclopropylsulfamoylamino)-3-fluoropyridin-4-yl]methyl]-4-fluoro-2-(2-fluoro-4-iodoanilino)benzamide] | 21 | 120 | 32 | – | –
